Measurements reported in paper PMC6364906 (PLoS ONE, 2019).
In brackets after ≈: the same amount, converted by molar mass.

Key:
bacterial dipeptidases = conditions: cited from earlier work
P. aeruginosa ATCC 27853 = assay: MIC/MBC by broth microdilution (CLSI); type: cell-based, Pseudomonas aeruginosa; conditions: geometric mean, wild-type reference strain
Description: (§1) The statistical significance of the difference in geometric means of MIC and MBC was determined with the Mann-Whitney U test.

K. pneumoniae GRP-0107 = assay: MIC/MBC by broth microdilution (CLSI); type: cell-based, Klebsiella pneumoniae; conditions: geometric mean, wild-type strain
Description: as §1

P. aeruginosa GRP-0036 = type: cell-based; conditions: geometric mean, broth microdilution, MDR carbapenem resistant strain
Description: as §1

P. aeruginosa GRP-0049 = type: cell-based; conditions: geometric mean, broth microdilution, MDR carbapenem susceptible strain
Description: as §1

P. aeruginosa GRP-0019 = type: cell-based; conditions: geometric mean, broth microdilution, wild-type strain
Description: as §1

SMILES | inhibition of bacterial dipeptidases (bacterial dipeptidases) | MIC [range] (P. aeruginosa ATCC 27853) [µg/mL] | MIC [range] (K. pneumoniae GRP-0107) [µg/mL] | MIC [range] (P. aeruginosa GRP-0036) [µg/mL] | MIC [range] (P. aeruginosa GRP-0049) [µg/mL] | MIC [range] (P. aeruginosa GRP-0019) [µg/mL]
CC1(C)C[C@@H]1C(=O)N/C(=C\CCCCSC[C@H](N)C(=O)O)C(=O)O [cilastatin] | very inefficient inhibitor |  |  |  |  | 
C[C@@H](O)[C@H]1C(=O)N2C(C(=O)O)=C(SCCN=CN)C[C@H]12 [imipenem] |  | 1.0 (≈ 3.34 µM) | 0.5 (≈ 1.67 µM) | 8 (≈ 26.7 µM) | 1.2 (≈ 4.01 µM) | 0.5 (≈ 1.67 µM)
